Common to all, as to format: functional
The subject of one assay is Acinetobacter baumannii. Kind of assay: Antimicrobial activity against OXA-23/OXA-58 producing Acinetobacter baumannii SR27323 in presence of human apo-transferrin by broth microdilution method.
The test system of assay [1] is Pseudomonas aeruginosa. Kind of assay: Antibacterial activity against Pseudomonas aeruginosa SR27001 infected in Jcl:ICR mouse systemic infection model assessed as increase in mouse survival rate administered iv 1 to 5 hrs post infection measured over 7 days.
A further assay deals with Escherichia coli. As to the kind of experiment: Antimicrobial activity against SHV-4 producing Escherichia coli ATCC BAA-200 in presence of human apo-transferrin by broth microdilution method.
Assay [2] deals with Stenotrophomonas maltophilia. Kind of assay: Antimicrobial activity against L-1 producing Stenotrophomonas maltophilia SR21970 in presence of human apo-transferrin by broth microdilution method.
Assay [3] relates to Pseudomonas aeruginosa. Kind of assay: Antimicrobial activity against Pseudomonas aeruginosa 27060deltaR1 harboring deletion of R1 plasmid in presence of human apo-transferrin by broth microdilution method.
Assay [4] deals with Pseudomonas aeruginosa. Kind of assay: Antimicrobial activity against Pseudomonas aeruginosa SR24 in presence of human apo-transferrin by broth microdilution method.
A further assay has as its system Klebsiella pneumoniae. As to the kind of experiment: Antimicrobial activity against KPC-2 producing Klebsiella pneumoniae ATCC BAA-1705 in presence of human apo-transferrin by broth microdilution method.
Assay [5] relates to Pseudomonas aeruginosa. As to the kind of experiment: Antimicrobial activity against VIM-2 producing Pseudomonas aeruginosa SBRKM-28 in presence of human apo-transferrin by broth microdilution method.
Assay [6] relates to Pseudomonas aeruginosa. Kind of assay: Antimicrobial activity against IMP-1 producing Pseudomonas aeruginosa SR27060 in presence of human apo-transferrin by broth microdilution method.
In assay [7] the test system is Pseudomonas aeruginosa. As to the kind of experiment: Antimicrobial activity against AmpC overproducing Pseudomonas aeruginosa SR24-12 in presence of human apo-transferrin by broth microdilution method.
In assay [8] the test system is Pseudomonas aeruginosa. Kind of assay: Antimicrobial activity against IMP-1 producing Pseudomonas aeruginosa SR27001 in presence of human apo-transferrin by broth microdilution method.

Regarding `CC(C)(O/N=C(\C(=O)N[C@@H]1C(=O)N2C(C(=O)[O-])=C(C[N+](C)(C)[C@@H]3CCN(C(=O)c4ccc(O)c(O)c4Cl)C3)CS[C@H]12)c1csc(N)n1)C(=O)O`, the MIC came to 1 µg/mL in the assay with Acinetobacter baumannii; 2 µg/mL in the assay on Escherichia coli; 1 µg/mL in assay [2]; 1 µg/mL with Pseudomonas aeruginosa [3]; 0.25 µg/mL in the assay on Pseudomonas aeruginosa [4]; 0.25 µg/mL in the assay on Klebsiella pneumoniae. For the same compound, the MIC in the assay on Pseudomonas aeruginosa [5] amounted to 0.25 µg/mL; with Pseudomonas aeruginosa [6] it was 2 µg/mL; in the assay with Pseudomonas aeruginosa [7] it was 0.5 µg/mL; in the assay on Pseudomonas aeruginosa [8] it was 2 µg/mL. Moreover, the ED50 in the assay on Pseudomonas aeruginosa [1] stood at 5.48 mg/kg.

`C[C@@H](O/N=C(\C(=O)N[C@@H]1C(=O)N2C(C(=O)[O-])=C(C[N+]3(CCNC(=O)c4ccc(O)c(O)c4Cl)CCCC3)CS[C@H]12)c1csc(N)n1)C(=O)O`: the minimum inhibitory concentration (MIC) is 1 µg/mL with Acinetobacter baumannii; 1 µg/mL in the assay with Escherichia coli; 0.5 µg/mL in assay [2]; 1 µg/mL with Pseudomonas aeruginosa [3]; 0.25 µg/mL with Pseudomonas aeruginosa [4]; 0.063 µg/mL in the assay with Klebsiella pneumoniae. The MIC was determined as 0.125 µg/mL in the assay on Pseudomonas aeruginosa [5], 2 µg/mL with Pseudomonas aeruginosa [6], 0.5 µg/mL in the assay on Pseudomonas aeruginosa [7] and 1 µg/mL in the assay with Pseudomonas aeruginosa [8]. Further, in the assay on Pseudomonas aeruginosa [1], the ED50 came to 5.48 mg/kg.

With `CC(C)(O/N=C(\C(=O)N[C@@H]1C(=O)N2C(C(=O)[O-])=C(C[N+]34CCC(CNC(=O)c5ccc(O)c(O)c5Cl)(CC3)CC4)CS[C@H]12)c1csc(N)n1)C(=O)O`, the MIC with Acinetobacter baumannii stood at 1 µg/mL; in the assay with Escherichia coli, 2 µg/mL; in assay [2] it was 0.25 µg/mL; in the assay with Pseudomonas aeruginosa [3], 1 µg/mL; with Pseudomonas aeruginosa [4] it was 0.25 µg/mL; with Klebsiella pneumoniae, 0.063 µg/mL. For the same compound, the MIC in the assay with Pseudomonas aeruginosa [5] was found to be 0.125 µg/mL; in the assay with Pseudomonas aeruginosa [6], 4 µg/mL; in the assay with Pseudomonas aeruginosa [7], 0.5 µg/mL; with Pseudomonas aeruginosa [8] it was 2 µg/mL. In addition, in the assay on Pseudomonas aeruginosa [1], the ED50 stood at 9.42 mg/kg.

For `Nc1nc(/C(=N/OCC(=O)O)C(=O)N[C@@H]2C(=O)N3C(C(=O)[O-])=C(C[N+]4(CCNC(=O)c5ccc(O)c(O)c5Cl)CCCC4)CS[C@H]23)cs1`, the MIC is 0.5 µg/mL in the assay on Acinetobacter baumannii; 32 µg/mL with Escherichia coli; 1 µg/mL in [2]; 2 µg/mL in the assay on Pseudomonas aeruginosa [3]; 0.125 µg/mL in the assay on Pseudomonas aeruginosa [4]; 0.25 µg/mL in the assay with Klebsiella pneumoniae. Moreover, the MIC was 0.125 µg/mL in the assay with Pseudomonas aeruginosa [5], 4 µg/mL in the assay on Pseudomonas aeruginosa [6], 0.5 µg/mL in the assay with Pseudomonas aeruginosa [7] and 2 µg/mL in the assay on Pseudomonas aeruginosa [8]. Moreover, the ED50 in the assay on Pseudomonas aeruginosa [1] amounted to 9.84 mg/kg.

On to `CC(C)(O/N=C(\C(=O)N[C@@H]1C(=O)N2C(C(=O)[O-])=C(C[N@+]3(C)[C@@H]4CC[C@H]3C[C@@H](NC(=O)c3ccc(O)c(O)c3Cl)C4)CS[C@H]12)c1csc(N)n1)C(=O)O`, for which the MIC with Acinetobacter baumannii worked out at 1 µg/mL; in the assay on Escherichia coli it was 2 µg/mL; in [2] it was 1 µg/mL; in the assay with Pseudomonas aeruginosa [3], 0.5 µg/mL; in the assay on Pseudomonas aeruginosa [4], 0.25 µg/mL; in the assay with Klebsiella pneumoniae, 0.063 µg/mL. Also, the MIC in the assay with Pseudomonas aeruginosa [5] was found to be 0.063 µg/mL; in the assay with Pseudomonas aeruginosa [6], 1 µg/mL; with Pseudomonas aeruginosa [7], 0.5 µg/mL; in the assay with Pseudomonas aeruginosa [8], 0.5 µg/mL. Moreover, the ED50 in the assay on Pseudomonas aeruginosa [1] is 10.5 mg/kg.

Turning to `CO/N=C(\C(=O)N[C@@H]1C(=O)N2C(C(=O)[O-])=C(C[N+]3(C)CCCC3)CS[C@H]12)c1csc(N)n1`, the MIC was determined as 16 µg/mL with Acinetobacter baumannii; 4 µg/mL in the assay on Escherichia coli; 64 µg/mL in [2]; 16 µg/mL with Pseudomonas aeruginosa [3]; 0.5 µg/mL in the assay with Pseudomonas aeruginosa [4]; 32 µg/mL with Klebsiella pneumoniae. Also, the MIC with Pseudomonas aeruginosa [5] is 16 µg/mL; in the assay on Pseudomonas aeruginosa [6], above 64 µg/mL; in the assay on Pseudomonas aeruginosa [7], 16 µg/mL; in the assay on Pseudomonas aeruginosa [8], above 64 µg/mL. Also, in the assay on Pseudomonas aeruginosa [1], the ED50 was above 100 mg/kg.

In the case of `CC(C)(O/N=C(\C(=O)N[C@@H]1C(=O)N2C(C(=O)[O-])=C(C[N+]3(CCNC(=O)c4cc(O)c(O)cc4Cl)CCCC3)CS[C@H]12)c1csc(N)n1)C(=O)O`, the MIC is 1 µg/mL in the assay on Acinetobacter baumannii; 2 µg/mL in the assay on Escherichia coli; 0.25 µg/mL in assay [2]; 1 µg/mL in the assay on Pseudomonas aeruginosa [3]; 0.063 µg/mL with Pseudomonas aeruginosa [4]; at most 0.031 µg/mL with Klebsiella pneumoniae. Also, the MIC worked out at 2 µg/mL in the assay with Pseudomonas aeruginosa [6], 0.125 µg/mL in the assay with Pseudomonas aeruginosa [7] and 2 µg/mL in the assay with Pseudomonas aeruginosa [8]. Also, in the assay with Pseudomonas aeruginosa [1], the ED50 worked out at 10.2 mg/kg.

These data come from ChEMBL document CHEMBL4152326 (2018).
